Values of other authors in patent US10927113B2, “Process for preparing purine derivatives” (Cyclacel Limited, priority 2017, dated 2021).

What was measured:
CDK = settings: background statement referring to WO 2008/122767
[1] = tested on: a range of different cell lines; settings: background statement

SMILES: CC[C@H](Nc1nc(NCc2cnc(C)cc2C)c2ncn(C(C)C)c2n1)[C@@H](C)O [Compound [1]]
- CDK inhibitory activity (CDK): potent CDK inhibitory activity
- potency in cellular toxicity studies [1]: surprisingly high potency
